Values after ≈ are worked out from the molar mass of the structure shown.

The MIC is the least concentration at which growth counts as inhibited. The low end stands for greater potency, the high end for weaker potency.

Common to all, as to assay type: functional
Assay [1] has as its system Staphylococcus aureus. The assay is described as follows: Antibacterial activity against Staphylococcus aureus ATCC 25923.
Assay [2] deals with Staphylococcus epidermidis. As to the kind of experiment: Antibacterial activity against Staphylococcus epidermidis.
Another assay concerns Escherichia coli. As to the kind of experiment: Antibacterial activity against Escherichia coli ATCC 25922.
Assay [3] relates to Pseudomonas aeruginosa. As to the kind of experiment: Antibacterial activity against Pseudomonas aeruginosa ATCC 27853.
A further assay has as its system Klebsiella pneumoniae. The assay is described as follows: Antibacterial activity against Klebsiella pneumoniae.
Assay [4] relates to Pseudomonas aeruginosa. The assay is described as follows: Ratio MIC for ceftazidime to compound MIC for Pseudomonas aeruginosa ATCC 27853.
In assay [5] the test system is Staphylococcus aureus. The assay is described as follows: Ratio MIC for ceftazidime to compound MIC for Staphylococcus aureus ATCC 25923.

For `CC(C)O/N=C(\C(=O)N[C@@H]1C(=O)N2C(C(=O)O)=C(CSc3nncs3)OC[C@H]12)c1nsc(N)n1`, the MIC against Staphylococcus aureus [1] is 32 µg/mL (≈ 60.8 µM); in assay [2], 1 µg/mL (≈ 1.9 µM); with Escherichia coli, 128 µg/mL (≈ 243 µM); with Pseudomonas aeruginosa [3], 4 µg/mL (≈ 7.6 µM); against Klebsiella pneumoniae, 1 µg/mL (≈ 1.9 µM).
Regarding `CC(C)CCO/N=C(\C(=O)N[C@@H]1C(=O)N2C(C(=O)O)=C(CSc3nncs3)OC[C@H]12)c1nsc(N)n1`, the MIC (in the assay on Staphylococcus aureus [1]; in assay [2]; with Escherichia coli; against Pseudomonas aeruginosa [3]; in the assay on Klebsiella pneumoniae) was 128 µg/mL (≈ 231 µM) each time.
As to `CC(C)CCO/N=C(\C(=O)N[C@@H]1C(=O)N2C(C(=O)O)=C(CSc3nnnn3CCO)OC[C@H]12)c1nsc(N)n1`, the MIC against Staphylococcus aureus [1] was 4 µg/mL (≈ 6.87 µM); in assay [2], 0.125 µg/mL (≈ 0.215 µM); in the assay with Escherichia coli it was 16 µg/mL (≈ 27.5 µM); against Pseudomonas aeruginosa [3] it was 8 µg/mL (≈ 13.7 µM); in the assay with Klebsiella pneumoniae, 64 µg/mL (≈ 110 µM). Moreover, in the assay with Pseudomonas aeruginosa [4], the Ratio turned out to be 2.
Take `CCCCCO/N=C(\C(=O)N[C@@H]1C(=O)N2C(C(=O)O)=C(CSc3nncs3)OC[C@H]12)c1nsc(N)n1`: the minimum inhibitory concentration (MIC) against Staphylococcus aureus [1] came to 64 µg/mL (≈ 115 µM); in assay [2], 64 µg/mL (≈ 115 µM); in the assay with Escherichia coli, 128 µg/mL (≈ 231 µM); with Pseudomonas aeruginosa [3], 16 µg/mL (≈ 28.8 µM); against Klebsiella pneumoniae it was 32 µg/mL (≈ 57.7 µM).
As to `CCCCCO/N=C(\C(=O)N[C@@H]1C(=O)N2C(C(=O)O)=C(CSc3nnnn3CCO)OC[C@H]12)c1nsc(N)n1`, the MIC is 16 µg/mL (≈ 27.5 µM) in the assay on Staphylococcus aureus [1]; 0.125 µg/mL (≈ 0.215 µM) in assay [2]; 8 µg/mL (≈ 13.7 µM) against Escherichia coli; 4 µg/mL (≈ 6.87 µM) in the assay with Pseudomonas aeruginosa [3]; 32 µg/mL (≈ 54.9 µM) in the assay on Klebsiella pneumoniae. For the same compound, the Ratio with Pseudomonas aeruginosa [4] is on record as 2.
In the case of `Nc1nc(/C(=N/OC2CCCCC2)C(=O)N[C@@H]2C(=O)N3C(C(=O)O)=C(CSc4nncs4)OC[C@H]23)ns1`, the MIC with Staphylococcus aureus [1] is 128 µg/mL (≈ 226 µM); in assay [2], 16 µg/mL (≈ 28.2 µM); in the assay with Escherichia coli it was 128 µg/mL (≈ 226 µM); against Pseudomonas aeruginosa [3], 16 µg/mL (≈ 28.2 µM); against Klebsiella pneumoniae, 16 µg/mL (≈ 28.2 µM).
With `CCO/N=C(\C(=O)N[C@@H]1C(=O)N2C(C(=O)O)=C(CSc3nncs3)OC[C@H]12)c1nsc(N)n1`, the MIC is 64 µg/mL (≈ 125 µM) in the assay on Staphylococcus aureus [1]; 128 µg/mL (≈ 250 µM) in assay [2]; 128 µg/mL (≈ 250 µM) in the assay on Escherichia coli; 128 µg/mL (≈ 250 µM) against Pseudomonas aeruginosa [3]; 128 µg/mL (≈ 250 µM) with Klebsiella pneumoniae.
For the compound `CC(C)O/N=C(\C(=O)N[C@@H]1C(=O)N2C(C(=O)O)=C(CSc3nnnn3CCO)OC[C@H]12)c1nsc(N)n1`, the MIC with Staphylococcus aureus [1] is 0.5 µg/mL (≈ 0.902 µM); in assay [2], 0.125 µg/mL (≈ 0.225 µM); in the assay with Escherichia coli it was 0.5 µg/mL (≈ 0.902 µM); against Pseudomonas aeruginosa [3], 8 µg/mL (≈ 14.4 µM); in the assay with Klebsiella pneumoniae, 32 µg/mL (≈ 57.7 µM).
With `CC(C)(O/N=C(\C(=O)N[C@@H]1C(=O)N2C(C(=O)[O-])=C(C[n+]3ccccc3)CS[C@H]12)c1csc(N)n1)C(=O)O` [CEFTAZIDIME], the minimal inhibitory concentration (MIC) came to 2 µg/mL (≈ 3.66 µM) against Staphylococcus aureus [1]; 16 µg/mL (≈ 29.3 µM) in assay [2]; 4 µg/mL (≈ 7.32 µM) against Escherichia coli; 16 µg/mL (≈ 29.3 µM) in the assay on Pseudomonas aeruginosa [3]; 32 µg/mL (≈ 58.5 µM) against Klebsiella pneumoniae.
Regarding `Nc1nc(/C(=N/OC2CCCC2)C(=O)N[C@@H]2C(=O)N3C(C(=O)O)=C(CSc4nncs4)OC[C@H]23)ns1`, the MIC amounted to 128 µg/mL (≈ 232 µM) in the assay on Staphylococcus aureus [1]; 8 µg/mL (≈ 14.5 µM) in assay [2]; 128 µg/mL (≈ 232 µM) against Escherichia coli; 16 µg/mL (≈ 29 µM) in the assay with Pseudomonas aeruginosa [3]; 4 µg/mL (≈ 7.24 µM) against Klebsiella pneumoniae.
Consider `CO/N=C(\C(=O)N[C@@H]1C(=O)N2C(C(=O)O)=C(CSc3nnnn3CCO)OC[C@H]12)c1nsc(N)n1`, for which the MIC in the assay with Staphylococcus aureus [1] came to 0.5 µg/mL (≈ 0.95 µM); in assay [2] it was 16 µg/mL (≈ 30.4 µM); against Escherichia coli it was 2 µg/mL (≈ 3.8 µM); with Pseudomonas aeruginosa [3], 16 µg/mL (≈ 30.4 µM); against Klebsiella pneumoniae, 32 µg/mL (≈ 60.8 µM). Besides, the Ratio with Staphylococcus aureus [5] was 4.
Regarding `CO/N=C(\C(=O)N[C@@H]1C(=O)N2C(C(=O)O)=C(CSc3nncs3)OC[C@H]12)c1nsc(N)n1`, the minimum inhibitory concentration (MIC) against Staphylococcus aureus [1] came out at 64 µg/mL (≈ 128 µM); in assay [2], 16 µg/mL (≈ 32.1 µM); against Escherichia coli it was 64 µg/mL (≈ 128 µM); with Pseudomonas aeruginosa [3], 32 µg/mL (≈ 64.2 µM); against Klebsiella pneumoniae, 8 µg/mL (≈ 16 µM).
For the compound `CCO/N=C(\C(=O)N[C@@H]1C(=O)N2C(C(=O)O)=C(CSc3nnnn3CCO)OC[C@H]12)c1nsc(N)n1`, the MIC with Staphylococcus aureus [1] was 0.5 µg/mL (≈ 0.925 µM); in assay [2], 0.125 µg/mL (≈ 0.231 µM); with Escherichia coli it was 2 µg/mL (≈ 3.7 µM); in the assay with Pseudomonas aeruginosa [3], 64 µg/mL (≈ 118 µM); against Klebsiella pneumoniae it was 64 µg/mL (≈ 118 µM).
Turning to `Nc1nc(/C(=N/OC2CCCC2)C(=O)N[C@@H]2C(=O)N3C(C(=O)O)=C(CSc4nnnn4CCO)OC[C@H]23)ns1`, the MIC was 1 µg/mL (≈ 1.72 µM) with Staphylococcus aureus [1]; 0.125 µg/mL (≈ 0.215 µM) in assay [2]; 4 µg/mL (≈ 6.89 µM) against Escherichia coli; 2 µg/mL (≈ 3.44 µM) in the assay with Pseudomonas aeruginosa [3]; 8 µg/mL (≈ 13.8 µM) with Klebsiella pneumoniae. Besides, the Ratio in the assay with Pseudomonas aeruginosa [4] turned out to be 2.
As for `Nc1nc(/C(=N/OC2CCCCC2)C(=O)N[C@@H]2C(=O)N3C(C(=O)O)=C(CSc4nnnn4CCO)OC[C@H]23)ns1`, the minimum inhibitory concentration (MIC) against Staphylococcus aureus [1] amounted to 2 µg/mL (≈ 3.36 µM); in assay [2], 64 µg/mL (≈ 108 µM); with Escherichia coli it was 32 µg/mL (≈ 53.8 µM); with Pseudomonas aeruginosa [3], 64 µg/mL (≈ 108 µM); in the assay on Klebsiella pneumoniae, 128 µg/mL (≈ 215 µM).

Source of the values: ChEMBL document CHEMBL2062516, “Design, synthesis and antibacterial activities of a series of new 2-oxaisocephems” (2012).
